Source: ChEMBL document CHEMBL1201862, “PubChem BioAssay data set” (2004)
The source made the active and inactive calls.

Key:
cells = type: functional, cell-based
[1] = molecular target: T1, Nuclear receptor subfamily 0 group B member 1 (Homo sapiens, UniProt P51843); type: functional, cell-based;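 further: HEK293T cells transfected with SF-1 and DAX-1 plus StAR promoter luciferase reporter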
T1 sequence (P51843 whole entry): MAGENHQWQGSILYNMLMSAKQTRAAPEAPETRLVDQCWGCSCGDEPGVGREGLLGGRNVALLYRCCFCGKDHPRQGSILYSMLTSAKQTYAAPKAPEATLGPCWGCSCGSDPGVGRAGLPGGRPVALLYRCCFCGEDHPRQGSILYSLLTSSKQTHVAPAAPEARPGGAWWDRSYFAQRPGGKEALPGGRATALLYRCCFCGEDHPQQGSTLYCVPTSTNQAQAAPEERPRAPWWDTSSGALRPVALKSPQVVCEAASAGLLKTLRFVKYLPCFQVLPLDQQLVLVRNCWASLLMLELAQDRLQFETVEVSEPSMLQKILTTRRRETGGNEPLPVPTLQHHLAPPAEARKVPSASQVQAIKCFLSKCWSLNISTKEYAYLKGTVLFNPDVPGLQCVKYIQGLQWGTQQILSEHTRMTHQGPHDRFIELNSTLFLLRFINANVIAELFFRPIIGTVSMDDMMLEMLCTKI

[2] = molecular target: Ras and Rab interactor 1/Tyrosine-protein kinase ABL1 (Homo sapiens, UniProt P00519+Q13671); type: functional;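 further: biochemical TR-FRET dose-response test measuring inhibition of binding between Rin1 and Abl proteins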
[3] = molecular target: T2, COUP transcription factor 2 (Homo sapiens, UniProt P24468); assay: Luminescence-based cell-based high throughput dose response assay to identify inhibitors of COUP-TFII (NR2F2).; type: functional;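 further: HEK293 cells transiently cotransfected with COUP-TFII expression vector and reporter; luciferase reporter luminescence driven by COUP-TFII from the pX2-168 reporter plasmid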
T2 sequence (P24468 whole entry): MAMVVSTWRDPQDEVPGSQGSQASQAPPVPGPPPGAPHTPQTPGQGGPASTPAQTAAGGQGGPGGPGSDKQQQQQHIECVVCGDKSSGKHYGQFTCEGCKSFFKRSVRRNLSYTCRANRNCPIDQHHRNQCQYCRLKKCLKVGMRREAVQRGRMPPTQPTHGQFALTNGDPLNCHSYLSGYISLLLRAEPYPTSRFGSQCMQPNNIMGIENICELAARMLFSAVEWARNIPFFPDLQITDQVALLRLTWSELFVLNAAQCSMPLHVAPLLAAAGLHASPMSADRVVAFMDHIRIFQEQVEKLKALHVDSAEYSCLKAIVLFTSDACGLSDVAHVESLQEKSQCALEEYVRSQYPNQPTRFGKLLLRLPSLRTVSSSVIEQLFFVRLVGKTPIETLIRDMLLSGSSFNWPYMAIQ

Steroidogenic factor 1 = Steroidogenic factor 1 (Homo sapiens, UniProt Q13285); assay: Counterscreen for inverse agonists of the liver receptor homolog-1 (LRH-1; NR5A2): Luminescence-based cell-based high throughput dose response assay to identify inverse agonists of the Steroidogenic Factor 1 Nuclear Receptor (SF1; NR5A1).; type: functional
[4] = nonselective StAR promoter luciferase inhibitors – cell-based, luminescence, luciferase reporter, counter-screen for LRH-1 inverse agonist project, dose response (AID 651969); type: functional
Melanocortin receptor 4 = Melanocortin receptor 4 (Homo sapiens, UniProt P32245); type: functional, cell-based;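 further: Cell-based assay with luminescence read-out, confirmatory dose-response testing for agonist activity of biased ligands at MC4R; human U2OS cells with tagged receptor and beta-arrestin; potency of agonists that increase receptor coupling to beta-arrestin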
[5] = molecular target: Nuclear receptor subfamily 5 group A member 2 (Homo sapiens, UniProt O00482); type: functional, cell-based;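 further: HEK293T cells transfected with LRH-1 and a StAR promoter luciferase reporter; potency for inhibitors that lower LRH-1 driven reporter light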
[6] = molecular target: T3, Small ubiquitin-related modifier 2 (Homo sapiens, UniProt P61956); assay: disruption of SUMO2 interaction with SIM peptide – biochemical, fluorescence polarization, uHTS hits, selectivity assay for SUMO1 interaction inhibitor project, dose response (AID 624385); type: functional; settings: read-out: IC50_Mean
[7] = molecular target: T4, Small ubiquitin-related modifier 1 (Homo sapiens, UniProt P63165); assay: SUMO1 protein interaction blockers, potency – biochemical, fluorescence polarization, uHTS hits, dose response (AID 624382); type: functional; settings: read-out: IC50_Mean
[8] = molecular target: T3, Small ubiquitin-related modifier 2; assay: SUMO2 binding disruption by SUMO1 hits – biochemical, FRET, human SUMO2, uHTS hits, selectivity assay for SUMO1 interaction inhibitor project, dose response (AID 624384); type: functional; settings: read-out: IC50_Mean
[9] = molecular target: T4, Small ubiquitin-related modifier 1; assay: SUMO1 protein-protein binding blockers, potency – biochemical, FRET, dose response (AID 624383); type: functional; settings: read-out: IC50_Mean

T3 sequence (P61956 whole entry): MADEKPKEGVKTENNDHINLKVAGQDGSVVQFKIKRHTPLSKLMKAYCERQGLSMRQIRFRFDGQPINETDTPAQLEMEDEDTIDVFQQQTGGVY
Sequence of Ras and Rab interactor 1/Tyrosine-protein kinase ABL1 (P00519 whole entry): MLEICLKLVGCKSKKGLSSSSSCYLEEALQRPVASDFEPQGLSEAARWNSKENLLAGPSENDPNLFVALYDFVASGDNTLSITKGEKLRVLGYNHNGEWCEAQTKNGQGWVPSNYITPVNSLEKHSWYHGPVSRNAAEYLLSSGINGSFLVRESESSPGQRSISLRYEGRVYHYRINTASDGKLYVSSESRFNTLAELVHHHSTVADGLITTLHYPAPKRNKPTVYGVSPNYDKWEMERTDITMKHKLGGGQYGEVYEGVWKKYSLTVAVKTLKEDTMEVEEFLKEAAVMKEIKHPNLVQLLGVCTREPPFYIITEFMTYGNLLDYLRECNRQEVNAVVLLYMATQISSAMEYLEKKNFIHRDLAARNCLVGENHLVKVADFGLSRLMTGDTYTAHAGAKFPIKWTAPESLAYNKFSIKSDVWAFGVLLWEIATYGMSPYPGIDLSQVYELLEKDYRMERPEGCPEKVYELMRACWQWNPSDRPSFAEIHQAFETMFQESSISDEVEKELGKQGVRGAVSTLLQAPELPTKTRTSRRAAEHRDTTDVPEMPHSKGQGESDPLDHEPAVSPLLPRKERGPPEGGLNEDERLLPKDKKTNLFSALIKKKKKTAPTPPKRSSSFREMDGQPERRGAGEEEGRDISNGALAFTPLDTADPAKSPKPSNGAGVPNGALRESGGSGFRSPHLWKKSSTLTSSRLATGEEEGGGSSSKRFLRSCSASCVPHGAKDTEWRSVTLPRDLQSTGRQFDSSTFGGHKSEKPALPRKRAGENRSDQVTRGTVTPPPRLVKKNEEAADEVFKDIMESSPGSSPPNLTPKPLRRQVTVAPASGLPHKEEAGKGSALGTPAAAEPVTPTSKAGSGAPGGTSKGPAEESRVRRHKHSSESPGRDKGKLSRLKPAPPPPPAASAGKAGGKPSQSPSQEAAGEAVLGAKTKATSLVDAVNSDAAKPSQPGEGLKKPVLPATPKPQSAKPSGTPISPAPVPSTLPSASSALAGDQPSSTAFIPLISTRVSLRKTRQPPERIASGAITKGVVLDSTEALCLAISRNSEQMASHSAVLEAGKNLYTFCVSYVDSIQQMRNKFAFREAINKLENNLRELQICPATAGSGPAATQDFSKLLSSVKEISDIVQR
Sequence of Ras and Rab interactor 1/Tyrosine-protein kinase ABL1 (Q13671 whole entry): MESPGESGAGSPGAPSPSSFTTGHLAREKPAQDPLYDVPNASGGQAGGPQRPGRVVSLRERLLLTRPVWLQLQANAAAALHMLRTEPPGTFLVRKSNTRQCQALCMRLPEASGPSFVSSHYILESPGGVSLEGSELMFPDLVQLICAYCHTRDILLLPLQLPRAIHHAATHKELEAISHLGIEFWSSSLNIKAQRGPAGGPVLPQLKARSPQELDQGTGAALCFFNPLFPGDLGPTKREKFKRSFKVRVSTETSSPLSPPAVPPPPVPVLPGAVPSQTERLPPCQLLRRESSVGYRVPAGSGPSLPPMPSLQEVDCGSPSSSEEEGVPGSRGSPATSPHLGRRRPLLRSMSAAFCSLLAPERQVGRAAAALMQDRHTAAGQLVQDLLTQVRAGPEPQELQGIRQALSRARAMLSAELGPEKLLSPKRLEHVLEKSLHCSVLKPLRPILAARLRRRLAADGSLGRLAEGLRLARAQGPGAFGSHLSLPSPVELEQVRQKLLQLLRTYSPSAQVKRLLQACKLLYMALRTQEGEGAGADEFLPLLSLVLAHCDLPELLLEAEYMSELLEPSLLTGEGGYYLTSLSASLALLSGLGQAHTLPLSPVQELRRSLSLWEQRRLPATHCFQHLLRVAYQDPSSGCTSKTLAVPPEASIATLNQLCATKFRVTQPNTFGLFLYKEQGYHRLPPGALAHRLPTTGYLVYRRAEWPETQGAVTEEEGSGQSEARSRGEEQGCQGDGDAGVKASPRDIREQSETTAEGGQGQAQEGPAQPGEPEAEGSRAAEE
T4 sequence (P63165 whole entry): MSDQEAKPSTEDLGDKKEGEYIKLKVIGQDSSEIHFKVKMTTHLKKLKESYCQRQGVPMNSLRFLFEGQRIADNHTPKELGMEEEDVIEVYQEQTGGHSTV
Sequence of Nuclear receptor subfamily 5 group A member 2 (O00482 whole entry): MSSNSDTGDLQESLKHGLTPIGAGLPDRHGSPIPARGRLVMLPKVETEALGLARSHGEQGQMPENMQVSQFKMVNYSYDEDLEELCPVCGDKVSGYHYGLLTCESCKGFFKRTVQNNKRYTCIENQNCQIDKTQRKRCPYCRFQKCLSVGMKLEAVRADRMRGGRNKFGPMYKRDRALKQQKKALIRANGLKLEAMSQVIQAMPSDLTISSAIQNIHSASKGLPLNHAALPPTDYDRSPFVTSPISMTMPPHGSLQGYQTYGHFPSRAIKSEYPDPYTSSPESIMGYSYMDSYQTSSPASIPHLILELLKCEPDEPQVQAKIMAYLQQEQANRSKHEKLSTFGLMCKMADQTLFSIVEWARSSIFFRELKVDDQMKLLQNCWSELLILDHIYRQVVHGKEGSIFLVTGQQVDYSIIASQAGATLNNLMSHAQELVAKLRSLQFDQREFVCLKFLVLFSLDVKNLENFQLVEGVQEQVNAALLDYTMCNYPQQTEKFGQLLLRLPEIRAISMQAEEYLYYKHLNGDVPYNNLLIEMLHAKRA
Sequence of Melanocortin receptor 4 (P32245 whole entry): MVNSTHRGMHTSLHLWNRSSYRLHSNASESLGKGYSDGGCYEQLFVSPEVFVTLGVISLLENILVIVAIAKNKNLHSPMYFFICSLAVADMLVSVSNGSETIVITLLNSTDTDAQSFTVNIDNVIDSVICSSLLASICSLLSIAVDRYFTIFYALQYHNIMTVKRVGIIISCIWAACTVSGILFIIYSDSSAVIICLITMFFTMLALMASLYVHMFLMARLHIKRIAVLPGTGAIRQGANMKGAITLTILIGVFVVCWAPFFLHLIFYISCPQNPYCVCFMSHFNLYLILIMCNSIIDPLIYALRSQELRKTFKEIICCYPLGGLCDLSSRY
Sequence of Steroidogenic factor 1 (Q13285 whole entry): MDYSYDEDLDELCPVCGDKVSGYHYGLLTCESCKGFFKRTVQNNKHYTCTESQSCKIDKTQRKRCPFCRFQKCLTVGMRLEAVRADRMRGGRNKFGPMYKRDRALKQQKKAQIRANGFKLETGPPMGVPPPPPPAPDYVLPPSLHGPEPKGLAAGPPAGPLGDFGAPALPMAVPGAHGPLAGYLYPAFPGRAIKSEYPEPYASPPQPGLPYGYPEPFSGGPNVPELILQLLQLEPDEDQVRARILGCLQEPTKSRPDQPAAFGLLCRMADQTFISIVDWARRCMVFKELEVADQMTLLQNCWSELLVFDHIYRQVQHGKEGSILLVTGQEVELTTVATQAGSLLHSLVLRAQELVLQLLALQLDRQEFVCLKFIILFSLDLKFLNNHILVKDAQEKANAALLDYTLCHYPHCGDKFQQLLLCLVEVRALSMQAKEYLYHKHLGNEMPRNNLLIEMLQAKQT

Question: Which IC50 (cells) does the source give for `O=c1oc2ccccc2cc1-c1nc2c(s1)CCCC2` here?
Answer: > 67.5 µM (inactive)

Question: And the IC50 [1]?
Answer: > 0.278 µM (active)

Question: Which IC50 [2] does the source give for `CCCCc1nnc(NC(=O)c2ccc(OCc3c(C)noc3C)cc2)s1` here?
Answer: > 73.5 µM (inactive)

Question: For `OC[C@@H]1CN(Cc2ccc(-c3ccccc3)cc2)C[C@H](n2cnc3c(NC4CCC4)ncnc32)O1`, which IC50 [2] is on record?
Answer: 16.7 µM (inactive)

Question: And the IC50 [3]?
Answer: 8.62 µM (active)

Question: What does the source list for `CC(=O)Nc1cc(-c2cccnc2)cn2c(-c3ccc(F)cc3)cnc12`?
Answer: IC50 (Steroidogenic factor 1): 4.56 µM (active); IC50 [4]: 35.9 µM (inactive); EC50 (Melanocortin receptor 4): > 89.2 µM (inactive); IC50 [5]: 22.3 µM (inactive)

Question: Which IC50 [6] does the source give for `C[C@H]([C@@H](O)[C@@H](O)[C@@H](C)C(C)(C)C)[C@H]1CC[C@H]2[C@@H]3CC[C@H]4C[C@H](OS(=O)(=O)O)[C@@H](OS(=O)(=O)O)C[C@]4(C)[C@H]3CC[C@]12C` here?
Answer: 25.5 µM (inactive)

Question: What about the IC50 [7] of the same compound?
Answer: 11 µM (active)

Question: What about the IC50 [8] of the same compound?
Answer: 16.3 µM (active)

Question: And the IC50 [9]?
Answer: 22.5 µM (inactive)
